Values of other authors in patent US20250333423A1, “SMALL MOLECULE MODULATORS OF GP130 SIGNALING PATHWAYS” (CarthroniX, Inc., priority 2022, published 2025).

Legend:
gp130 = biological target: T1, gp130 (Homo sapiens, UniProt P40189)
T1 sequence (P40189 23-918): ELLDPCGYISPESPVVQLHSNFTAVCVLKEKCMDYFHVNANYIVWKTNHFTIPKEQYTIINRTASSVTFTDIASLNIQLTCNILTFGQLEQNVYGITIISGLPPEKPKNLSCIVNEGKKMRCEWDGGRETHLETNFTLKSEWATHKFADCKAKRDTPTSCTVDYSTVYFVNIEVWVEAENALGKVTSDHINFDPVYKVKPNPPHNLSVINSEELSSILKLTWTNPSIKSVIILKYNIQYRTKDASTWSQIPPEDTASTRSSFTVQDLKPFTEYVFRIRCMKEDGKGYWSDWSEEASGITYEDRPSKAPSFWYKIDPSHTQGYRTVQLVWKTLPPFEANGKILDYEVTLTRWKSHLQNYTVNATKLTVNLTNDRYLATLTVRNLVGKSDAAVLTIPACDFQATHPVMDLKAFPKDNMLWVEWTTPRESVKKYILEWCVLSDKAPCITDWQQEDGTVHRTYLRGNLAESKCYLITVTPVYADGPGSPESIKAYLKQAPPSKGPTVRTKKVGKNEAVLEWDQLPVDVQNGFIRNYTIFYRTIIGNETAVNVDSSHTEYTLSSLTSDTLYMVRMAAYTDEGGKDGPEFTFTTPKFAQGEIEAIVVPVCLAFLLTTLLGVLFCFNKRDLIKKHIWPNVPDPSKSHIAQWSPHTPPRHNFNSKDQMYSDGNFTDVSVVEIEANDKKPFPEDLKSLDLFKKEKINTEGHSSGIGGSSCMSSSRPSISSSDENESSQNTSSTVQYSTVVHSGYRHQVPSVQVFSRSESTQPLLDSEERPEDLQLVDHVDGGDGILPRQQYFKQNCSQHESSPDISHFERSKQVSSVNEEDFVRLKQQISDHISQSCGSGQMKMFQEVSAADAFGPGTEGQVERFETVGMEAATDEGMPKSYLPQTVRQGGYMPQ

In the case of `Brc1ccc(Nc2nc(-c3ccccc3)cs2)cc1` [RCGD 423], the “interaction with gp130” value (gp130; in vitro) is given as “interacts with the extracellular region of gp130”, the “formation of gp130 homodimers” value (gp130; ligand-independent) is given as “promotes the formation of active, ligand-independent gp130 homodimers” and the “prevention of cartilage degeneration” value (rat model of OA) is given as “remarkable ability to prevent cartilage degeneration”.
